Read-outs that look alike come from different tables or passages of the source.
Experiments:
THP1 macrophages = assay: LPS (Klebsiella pneumoniae) activation of THP1 macrophages, MCP1 and TNFα secretion (HTRF); type: cell-based, human; settings: 24 h, then LPS Klebsiella 6 h; for inhibition at 1 µM / inhibition at 10 µM: Homo sapiens; for inhibition at 1 µM: THP-1, 1 μM; for inhibition at 10 µM: THP-1, 10 μM
Procedure: In order to test the efficacy of the compounds on macrophage activation and pro-inflammatory cytokine production, 2.5×10^4 THP-1 cells were cultured in a 384-well plate and treated with 100 ng/mL PMA (#P8139, Sigma) for 24 h to induce differentiation into macrophages.
Then, medium was removed and FBS-deprived medium containing 1 or 10 μM compound was added for 24 h. Finally, THP1 macrophages were stimulated for 6 h with 100 ng/mL LPS (Klebsiella pneumoniae, #L4268, Sigma-Aldrich).
Monocyte chemoattractant protein 1 (MCP1) and Tumor necrosis α (TNFα) were measured in cell supernatants by Homogeneous Time Resolved Fluorescence (HTRF, #62[…] for TNFα, and 62HCCL2PEG for MCP1, Cisbio). Fluorescence was measured with Infinite 500 (#30019337, Tecan) to determine the concentration of cytokines.
In order to evaluate the effect of the compounds according to the invention on LPS-induced cytokines production by macrophages, the percentage of inhibition over the vehicle condition were calculated for each compound at 1 and 10 μM.

HepG2 cells = assay: Staurosporin-induced apoptosis in HepG2 cells, caspase 3/7 activity; type: cell-based, human; settings: 16 h pre-treatment, then 10 μM staurosporin 4 h; for % Inhibition of caspase activity over mean Veh.: 0.3 μM; for inhibition at 0.3 µM: Homo sapiens, HepG2, 0.3 μM, read-out: % Inhibition of caspase activity over mean Veh.
Procedure: In order to evaluate the effect of the compounds on human hepatocytes that undergo a cellular stress induced by staurosporin, the human hepatoblastoma-derived HepG2 cell line (ECACC, #85011430, Sigma-Aldrich) was cultured in high-glucose DMEM medium (#41965, Gibco, France) supplemented with 10% of fetal bovine serum (FBS, #10270, Gibco), 1% penicillin/streptomycin (#15140, Gibco), 1% sodium pyruvate (#11360, Gibco) and 1% MEM non-essential amino acids (#11140, Gibco) in a 5% CO2 incubator at 37° C.
To evaluate caspase 3/7 activity, which is a surrogate marker of apoptosis, 1.5×10^4 cells were plated in a 384-well plate (#781080, Greiner, France). After cell adherence (8 hours), cells were serum starved for 16 h in the presence of 0.3 μM of compounds or vehicle. Cpd.1 was also used at 3 and 10 μM. Thereafter, cells were treated with 10 μM staurosporin (#569397, Sigma-Aldrich, Germany) supplemented with compound for additional 4 hours before cell lysis and caspase activity measurement.
Caspase 3/7 activity was measured using Caspase Glow™ 3/7 assay (#G8093, Promega, USA). Luminescence was measured using a Spark microplate reader (#30086376, Tecan, USA). The amount of luminescence (RLU) directly correlates with caspase 3/7 activity.

[1] = tested on: LPS/GaIN acute liver failure, C57BL/6J mice; assay: LPS/GalN model of acute liver failure in mice, hepatic gene expression, serum cytokines and albumin; type: in vivo, mouse; settings: mouse serum, 1 mg/kg/day oral 3 days before LPS/GaIN, 4 h after injection
[2] = tested on: LPS-induced endotoxemia, Sprague Dawley rats; assay: LPS-induced endotoxemia in rats, hepatic markers and serum TNFα; type: in vivo; settings: rat, 100 mg/kg/day oral 3 days before LPS, 3 h after LPS
[3] = read-out: % inhibition of MCP1 secretion over mean Veh.
[4] = read-out: % inhibition of TNFα secretion over mean Veh.

## Cc1cc(CCC(=O)c2ccc(OC(F)(F)F)cc2)cc(C)c1OC(C)(C)C(=O)O [Cpd. 2, 2-[2,6-dimethyl-4-[3-[4-(trifluoromethyloxy)phenyl]-3-oxo-propyl]phenoxy]-2-methylpropanoic acid]
THP1 macrophages; [3]
  inhibition at 1 µM: 96%

## Cc1cc(CCC(=O)c2ccc(C(F)(F)F)cc2)cc(C)c1OC(C)(C)C(=O)O [Cpd. 3, 2-[2,6-dimethyl-4-[3-[4-(trifluoromethyl)phenyl]-3-oxo-propyl]phenoxy]-2-methylpropanoic acid]
THP1 macrophages; [3]
  inhibition at 1 µM: 90%
THP1 macrophages; [4]
  inhibition at 1 µM: 0%
  inhibition at 10 µM: 11 to 58%

## COC(CCc1cc(C)c(OC(C)(C)C(=O)O)c(C)c1)c1ccc(SC)cc1 (stereo not drawn) [Cpd. 4, 2-[2,6-dimethyl-4-[3-[4-(methylthio)phenyl]-3-methoxypropyl]phenoxy]-2-methylpropanoic acid]
THP1 macrophages; 10 μM, 10 µM
  % inhibition of MCP1 secretion over mean Veh.: 110%
THP1 macrophages; [3]
  inhibition at 1 µM: 100%
HepG2 cells
  % Inhibition of caspase activity over mean Veh.: 32%
  inhibition at 0.3 µM: 26 to 79%

## CSc1ccc(C(CCc2cc(C)c(OC(C)(C)C(=O)O)c(C)c2)OC(C)C)cc1 (stereo not drawn) [Cpd. 5, 2-[2,6-dimethyl-4-[3-[4-(methylthio)phenyl]-3-isopropyloxypropyl]phenoxy]-2-methylpropanoic acid]
THP1 macrophages; [3]
  inhibition at 1 µM: 93%

## Cc1cc(CCC(O)c2ccc(OC(F)(F)F)cc2)cc(C)c1OC(C)(C)C(=O)O (stereo not drawn) [Cpd. 6, 2-(4-(3-hydroxy-3-(4-(trifluoromethoxy)phenyl)propyl)-2,6-dimethylphenoxy)-2-methylpropanoic acid]
THP1 macrophages; [3]
  inhibition at 1 µM: 94%
HepG2 cells
  inhibition at 0.3 µM: 26 to 79%

## CON=C(CCc1cc(C)c(OC(C)(C)C(=O)O)c(C)c1)c1ccc(OC(F)(F)F)cc1 [Cpd. 7, 2-(4-(3-(methoxyimino)-3-(4-(trifluoromethoxy)phenyl)propyl)-2,6-dimethylphenoxy)-2-methylpropanoic acid]
THP1 macrophages; [3]
  inhibition at 1 µM: 95%
THP1 macrophages; [4]
  inhibition at 1 µM: 25%

## CCOC(CCc1ccc(OC(C)(C)C(=O)O)c(Cl)c1Cl)c1sc(-c2ccc(C(F)(F)F)cc2)nc1C (stereo not drawn) [Cpd. 9, 2-(2,3-dichloro-4-(3-ethoxy-3-(4-methyl-2-(4-(trifluoromethyl)-phenyl)thiazol-5-yl)propyl)phenoxy)-2-methylpropanoic acid]
THP1 macrophages; [3]
  inhibition at 1 µM: 86%
THP1 macrophages; [4]
  inhibition at 1 µM: 3%

## COC(CCc1cc(C)c(OC(C)(C)C(=O)O)c(C)c1)c1ccc(C(F)(F)F)cc1 (stereo not drawn) [Cpd. 13, 2-(4-(3-methoxy-3-(4-(trifluoromethyl)phenyl)propyl)-2,6-dimethylphenoxy)-2-methylpropanoic acid]
THP1 macrophages; 10 μM, 10 µM
  % inhibition of MCP1 secretion over mean Veh.: 111%
  % inhibition of TNFα secretion over mean Veh.: 18%
THP1 macrophages; [3]
  inhibition at 1 µM: 99%
THP1 macrophages; [4]
  inhibition at 1 µM: 0%
  inhibition at 10 µM: 11 to 58%
HepG2 cells
  % Inhibition of caspase activity over mean Veh.: 79%

## COC(CCc1cc(C)c(OC(C)(C)C(=O)O)c(C)c1)c1ccc(Br)cc1 (stereo not drawn) [Cpd. 14, 2-[2,6-dimethyl-4-[3-[4-bromophenyl]-3-methoxypropyl]phenoxy]-2-methylpropanoic acid]
THP1 macrophages; [3]
  inhibition at 1 µM: 91%
THP1 macrophages; [4]
  inhibition at 1 µM: 18%

## CC(C)(Oc1ccc(CCNC(=O)c2ccc(Cl)cc2)cc1)C(=O)O [Cpd. 17, bezafibrate, reference compound]
THP1 macrophages; [3]
  inhibition at 1 µM: 22%
  inhibition at 10 µM: 54 to 132%

## CC[C@@H](Oc1cccc(CN(CCCOc2ccc(OC)cc2)c2nc3ccccc3o2)c1)C(=O)O [Cpd. 18, pemafibrate, reference compound]
[1]
  decrease of circulating IL10 level compared to vehicle: 52%
  serum albumin level: restore albumin concentration

## CC(C)OC(=O)C(C)(C)Oc1ccc(C(=O)c2ccc(Cl)cc2)cc1 [Cpd. 19, fenofibrate]
[2]
  reduction of LPS-induced serum TNFα level: 85%
  restoration of serum albumin concentration compared to vehicle: 79%

## CCO[C@H](COc1ccc(C(F)(F)F)cc1)CSc1ccc(OCC(=O)O)c(C)c1.NCCCC[C@H](N)C(=O)O.O.O [Cpd. 20, seladelpar lysine, reference compound]
THP1 macrophages; 1 μM
  % inhibition of MCP1 secretion over mean Veh.: 105%

## CCc1ccc(CCOc2ccc(CC3SC(=O)NC3=O)cc2)nc1 (stereo not drawn) [Cpd. 21, pioglitazone, reference compound]
THP1 macrophages; [3]
  inhibition at 1 µM: 80%
THP1 macrophages; [4]
  inhibition at 1 µM: 0%
  inhibition at 10 µM: 11 to 58%

## CN(CCOc1ccc(CC2SC(=O)NC2=O)cc1)c1ccccn1 (stereo not drawn) [Cpd. 22, rosiglitazone, reference compound]
THP1 macrophages; 1 μM
  % inhibition of MCP1 secretion over mean Veh.: 79%
  % inhibition of TNFα secretion over mean Veh.: 36%
THP1 macrophages; 10 μM, 10 µM
  % inhibition of MCP1 secretion over mean Veh.: 117%
  % inhibition of TNFα secretion over mean Veh.: 11%

## O=C(O)CCCc1cc2cc(Cl)ccc2n1S(=O)(=O)c1ccc2ncsc2c1 [Cpd. 23, lanifibranor, reference compound]
THP1 macrophages; [3]
  inhibition at 1 µM: 100%
THP1 macrophages; [4]
  inhibition at 1 µM: 15%
